Experimental data reported in patent US20220031652A1, “USE OF AN ORGANOMETALLIC COMPOUND AS A DNA-DEMETHYLATING AGENT” (UNIVERSITE DE LORRAINE, priority 2018, published 2022).

System: MDA-MB231, T47D, T47D R+ doxo, U251 and U87 cells
Experiment: Crystal violet proliferation test at 2 μM, 48 h or 72 h
Assay type: cell-based
Procedure: Each cell line is seeded in 96-well plates (100 μL medium/well) according to the following conditions:
After 48 h or 72 h of treatment, the medium of each well is removed then a washing is carried out with 100 μL of PBS.
The cells are then fixed with 100 μL of paraformaldehyde 4% for 20 minutes, followed by two washings with 500 μL of PBS.
The percentage of cells adhered is highlighted by a crystal violet coloration.
100 μL of crystal violet at 0.1% (1/5 dilution in H2O of the stock solution: 0.5% crystal violet 2% filtered ethanol 0.22 μM) is added in each well.
After 30 minutes of incubation at ambient temperature, the wells are rinsed 3 times with distilled water, then correctly dried by patting on a sheet of absorbent paper.
100 μL of 10% acetic acid is then added to each well.
The plate is stirred until total solubilisation of the crystal violet crystals (around 10 minutes).

**Q.** `[Ru+2].c1ccc(-c2cc(-c3ccccn3)nc(-c3ccccn3)c2)cc1.c1ccc(-c2cc(-c3ccccn3)nc(-c3ccccn3)c2)cc1` [Ru] was tested. Which “inhibition of the proliferation (crystal violet)” value did it give?
**A.** does not lead to any inhibition of the proliferation
